Test results reported in PMC4104761, “Identification of a novel lytic peptide for the treatment of solid tumours” (Genes & Cancer, 2014).

Key:
normal human cell lines = test: MTT viability assay, average of normal human cell lines; assay type: cell-based; details: 20 µg Cypep-1/ml, 60 min exposure
Procedure: Cypep-1 was tested in various concentrations on a total of 17 cell lines, which included 13 human and 1 murine tumour cell line(s), as well as 3 normal human cell lines. Listed in detail: 4 human osteosarcoma (U2OS, SaOS2, HOS and MNNG-HOS), 6 human glioblastoma (A172, GaMg, LN18, U87, U373 and T98G) and 3 human mammary carcinoma cell lines (MCF7, AU565 and MDA-MB-468) as well as an additional murine mammary carcinoma cell line (4T1). Furthermore, 3 normal human cell lines were included: 2 normal human fibroblast cell lines (HFF1 and 142Br) as well as normal human osteoblasts (HOB).
MTT proliferation assays were performed on all cell lines (with the exception of 142Br (human skin fibroblasts)), using monolayers of 15 000 cells in sterile 96 well tissue culture plates (Nunc™, Roskilde, Denmark), respectively. All cells were incubated with Cypep-1 dissolved in 0.9% NaCl, at the following concentrations: 0.1, 0.5, 1.0, 5, 10, 15, 20, 25, 30 and 35µg of Cypep-1 per ml and assayed after 15, 30, 45, 60, 75, 90, 180, 270 and 360 min.

[1] = Biodistribution of 125I-Cypep-1 after i.v. injection; assay type: in vivo, Wistar rat; details: rat
Procedure: The radio labelling of Cypep-1 was performed with ^125I, according to the Iodo-Gen method as described by Fraker et al.. The obtained ^125I-Cypep-1 stock solution was stored in the dark at 4°C for 48 hours prior to validation by reversed phase chromatography, using a 4.6 × 50 mm Dionex Proswift RP-2H column on an Ettan LC System (GE Healthcare, Oslo, Norway) in line with a Radiomatic 610TR Flow System Analyzer by Perkin Elmer (PerkinElmer, Waltham, MA) for gamma detection.
The plasma activity and biodistribution of ^125I-Cypep-1 was evaluated in a single experiment. An adult female Wistar rat of 260 g body weight was anaesthetized using 15 mg of Pentobarbital i.p.. Its body temperature was maintained at 37°C, using both a heating pad and an infrared lamp. Two PE-50 polyethylene catheters were placed into the femoral vein for the bolus injection of Cypep-1 and one into the femoral artery for blood sampling. 50 µl of the ^125I-Cypep-1 stock solution dissolved in 500 µl 0.9% NaCl were injected i.v., and a total of six arterial blood samples (100 µl per sample) were collected at 0.25, 1, 5, 10, 15 and 20 min following the ^125I-Cypep-1 administration. The animal was sacrificed under deep anaesthesia with an i.v. bolus injection of 0.5 ml saturated KCl. The tissue and plasma samples were harvested immediately and counted for ^125I-activity in a gamma-counter (LKB Wallac 1285, Turku, Finland). The peptide distribution volumes in the various body tissues were calculated as the ^125I-activity per gram tissue sample divided by the time-averaged plasma ^125I-activity during the 20 minutes clearance period (*= plasma equivalent space in ml/g tissue wet weight).

BALB/c mice = test: In vivo toxicity after tail vein injection; parameters: species or system mouse; details: 100 µl bolus per animal
Procedure: Cypep-1 was injected into the lateral tail vein of 37 BALB/c mice (average age 131,7 days; average weight 25.2 g). In detail, the group consisted of 18 male (average weight 26.5g) and 19 female animals (average weight 23.9g). The respective peptide concentrations administered were increased systematically from 50µg up to 800µg Cypep-1 per bolus per animal. All Cypep-1 doses were adjusted to a total injection volume of 100µl 0,9% NaCl, which remained constant for all animals. Throughout the experiment, a group of 4 animals (2 males/ 2 females) received the same Cypep-1 concentrations per bolus, respectively. All injections were performed very slowly in order to avoid cardiac stress. The mice were then observed for a period of 24h with regards to signs of distress and pain (e.g. orbital tightening, flattened ear position, formation of nose and/or cheek bulge, whisker change, overall activity level) as well as potential toxic effects. During the first 2 hours, the animals were monitored continuously and then checked again at 4 h, 6 h, 12 h and 24 h post injection.

[2] = tested on: 4T1 murine mammary carcinoma allografts; test: Treatment of subcutaneous 4T1 murine breast cancer allografts; assay type: in vivo, BALB/c mice
Procedure: 10^6 4T1 murine metastatic breast cancer cells were grafted subcutaneously under Isofluran anaesthesia into the right upper quadrant of the back of 20 female BALB/c mice (average age 126,25 days; average weight 23.8g). At day 12, when the tumours of both groups had reached a tumour volume of 0.12cm^3 in average, 10 female mice (average weight 23.9 g) received a single intra-tumoural injection of 1200 µg of Cypep-1 dissolved in 300 µl 0.9% NaCl, whereas an equal injection volume of 0.9% NaCl was administered to the 10 animals of the control group (average weight 23.7 g). All injections were performed under isofluoran gas anaesthesia. The animals were then observed for signs of distress as described above. 24 hours after the injections, two animals (one assigned to the control and one of the treatment group) were sacrificed for histological analysis. The harvested tumours were immediately fixed in 4% buffered formaldehyde and embedded in paraffin, cut into 5 µm sections and stained with H&E.
In the remaining 18 experimental animals, the tumour size was measured at regular intervals (every 4th day) until day 24 post tumour grafting. All mice were monitored daily for signs of distress and pain. Those that became sick were euthanized humanely. All animal procedures described were in accordance with protocols approved by The National Animal Research Authority (Oslo, Norway).

[3] = 125I-Cypep-1, i.v., 20 min after administration, gamma counting, single animal

YGRKKRRQRRRGKTLRVAKAIYKRYIE [Cypep-1]
surviving fraction, average of normal human cell lines (normal human cell lines): 56%
tissue distribution, cerebellum [1, 3]: 0.00 ml/g tissue wet weight
tissue distribution, cerebrum [1, 3]: 0.01 ml/g tissue wet weight
tissue distribution, colon [1, 3]: 0.14 ml/g tissue wet weight
tissue distribution, eye [1, 3]: 0.02 ml/g tissue wet weight
tissue distribution, jejunum [1, 3]: 0.17 ml/g tissue wet weight
tissue distribution, kidneys (per kidney) [1, 3]: 1.685 ml/g tissue wet weight
tissue distribution, liver [1, 3]: 11.74 ml/g tissue wet weight
tissue distribution, lungs [1, 3]: 0.38 ml/g tissue wet weight
tissue distribution, muscle tissue [1, 3]: 0.02 ml/g tissue wet weight
tissue distribution, spleen [1, 3]: 4.89 ml/g tissue wet weight
tissue distribution, stomach [1, 3]: 0.04 ml/g tissue wet weight
tissue distribution, thyroid gland [1, 3]: 0.13 ml/g tissue wet weight
passage of the blood-brain-barrier ([1]; concluded from very low concentrations in organs of the central nervous system, i.v.): did not pass the blood-brain-barrier
dose with first signs of toxicity (seizure-like catatonic stupor) (BALB/c mice; slow tail vein injection): 600 µg
dose with no signs of distress or pain (BALB/c mice; slow tail vein injection, 24 h observation): up to 500 µg
lethal dose (BALB/c mice; tail vein injection, death within 5 - 10 min): 800 µg
histological analysis of tumours ([2]; 24 hours after intra-tumoural administration of 1200 µg, H&E): extensive areas of necrosis
average tumour volume at day 24 ([2]; single intra-tumoural injection of 1200 µg at day 12, control 3.5 cm^3, P<0.0001): 1.1 cm^3
median survival ([2]; single intra-tumoural injection of 1200 µg at day 12, control 20 days, P<0.0011): 32 days
signs of discomfort, pain or toxicity after intratumoural injection ([2]; single intra-tumoural injection of 1200 µg in 300µl 0.9% NaCl, BALB/c mice): None of the animals showed any signs of discomfort, pain or toxicity
